The source of these data is ChEMBL document CHEMBL5356967, “Design, synthesis, evaluation and optimization of novel azole analogues as potent antifungal agents” (Bioorg Med Chem, 2024).

≈ marks a conversion by molar mass, not a printed value. Calls of active or inactive are those of the source. The rule behind the calls is not given here. Where only a bound is given, the exact number is not on record here.

The subject of data set [1] is Candida albicans. Kind of data set: Antifungal activity against Candida albicans SC5314 assessed as inhibition of fungal growth incubated for 24 hrs by broth microdilution method. It is filed as functional.
The subject of data set [2] is Candida albicans. Briefly: Potency index, ratio of Ketoconazole MIC80 to test compound MIC80 for antifungal activity against Candida albicans SC5314 assessed as inhibition of fungal growth incubated for 24 hrs by broth microdilution method. It is filed as functional.
The test system of data set [3] is Aspergillus fumigatus. Kind of data set: Antifungal activity against Aspergillus fumigatus 0504656 assessed as inhibition of fungal growth incubated for 48 hrs by broth microdilution method. It is filed as functional.
The subject of data set [4] is Candida albicans. Kind of data set: Potency index, ratio of Ketoconazole MIC80 to test compound MIC80 for antifungal activity against Candida albicans Y0109 assessed as inhibition of fungal growth incubated for 24 hrs by broth microdilution method. It is filed as functional.
The test system of data set [5] is Trichophyton rubrum. Kind of data set: Antifungal activity against Trichophyton rubrum 0501124 assessed as inhibition of fungal growth incubated for 24 hrs by broth microdilution method. It is filed as functional.
For data set [6], the system named is Candida parapsilosis. Briefly: Antifungal activity against Candida parapsilosis 0306392 assessed as inhibition of fungal growth incubated for 24 hrs by broth microdilution method. The conditions noted are these: Lodderomyces parapsilosis. It is filed as functional.
In data set [7] the test system is Candida albicans. Kind of data set: Potency index, ratio of Fluconazole MIC80 to test compound MIC80 for antifungal activity against Candida albicans SC5314 assessed as inhibition of fungal growth incubated for 24 hrs by broth microdilution method. It is filed as functional.
Data set [8] concerns Candida albicans. Briefly: Potency index, ratio of Fluconazole MIC80 to test compound MIC80 for antifungal activity against Candida albicans Y0109 assessed as inhibition of fungal growth incubated for 24 hrs by broth microdilution method. It is filed as functional.
In data set [9] the test system is Candida tropicalis. Briefly: Antifungal activity against Candida tropicalis 0370354 assessed as inhibition of fungal growth incubated for 24 hrs by broth microdilution method. It is filed as functional.
Data set [10] concerns Candida albicans. Kind of data set: Antifungal activity against Candida albicans Y0109 assessed as inhibition of fungal growth incubated for 24 hrs by broth microdilution method. The class given is functional.
Data set [11] concerns Candida albicans. Kind of data set: Antifungal activity against fluconazole-resistant Candida albicans 901 assessed as inhibition of fungal growth incubated for 24 hrs by broth microdilution method. It is filed as functional.
Data set [12] has as its system Nannizzia gypsea. Briefly: Antifungal activity against Microsporum gypseum 0310388 assessed as inhibition of fungal growth incubated for 24 hrs by broth microdilution method. The class given is functional.
Data set [13] concerns Candida albicans. Kind of data set: Antifungal activity against fluconazole-resistant Candida albicans 904 assessed as inhibition of fungal growth incubated for 24 hrs by broth microdilution method. It is filed as functional.
For data set [14], the system named is Cryptococcus neoformans. Kind of data set: Antifungal activity against Cryptococcus neoformans ATCCBLS108 assessed as inhibition of fungal growth incubated for 72 hrs by broth microdilution method. It is filed as functional.
Data set [15] concerns Candida albicans. Kind of data set: Antifungal activity against fluconazole-resistant Candida albicans 901 assessed as inhibition of fungal growth at 4 ug/ml incubated for 48 hrs by spot assay. It is filed as functional, organism-based. The conditions noted are these: dose 4.0 µg/ml.
In data set [16] the test system is Candida tropicalis. Kind of data set: Antifungal activity against Candida tropicalis 0370354 assessed as inhibition of fungal growth at 4 ug/ml incubated for 48 hrs by spot assay. As to conditions: dose 4.0 µg/ml. The class given is functional, organism-based.
The subject of data set [17] is Candida albicans. Kind of data set: Antifungal activity against fluconazole-resistant Candida albicans 904 assessed as inhibition of fungal growth at 4 ug/ml incubated for 48 hrs by spot assay. The conditions noted are these: dose 4.0 µg/ml. It is filed as functional, organism-based.
Data set [18] concerns Cryptococcus neoformans. Briefly: Antifungal activity against Cryptococcus neoformans ATCCBLS108 assessed as inhibition of fungal growth at 4 ug/ml incubated for 48 hrs by spot assay. The conditions noted are these: dose 4.0 µg/ml. It is filed as functional, organism-based.
Data set [19] concerns Candida albicans. Kind of data set: Antifungal activity against Candida albicans SC5314 assessed as inhibition of fungal growth at 4 ug/ml incubated for 48 hrs by spot assay. The class given is functional, organism-based. As to conditions: dose 4.0 µg/ml.
For data set [20], the system named is Candida parapsilosis. Kind of data set: Antifungal activity against Candida parapsilosis 0306392 assessed as inhibition of fungal growth at 4 ug/ml incubated for 48 hrs by spot assay. It is filed as functional, organism-based. As to conditions: dose 4.0 µg/ml.
Data set [21] relates to Candida parapsilosis. Briefly: Potency index, ratio of Fluconazole MIC80 to test compound MIC80 for antifungal activity against Candida parapsilosis 0306392 assessed as inhibition of fungal growth incubated for 24 hrs by broth microdilution method. The class given is functional.
The subject of data set [22] is Candida parapsilosis. Briefly: Potency index, ratio of Ketoconazole MIC80 to test compound MIC80 for antifungal activity against Candida parapsilosis 0306392 assessed as inhibition of fungal growth incubated for 24 hrs by broth microdilution method. The class given is functional.
The subject of data set [23] is Candida parapsilosis. Kind of data set: Potency index, ratio of Itraconazole MIC80 to test compound MIC80 for antifungal activity against Candida parapsilosis 0306392 assessed as inhibition of fungal growth incubated for 24 hrs by broth microdilution method. It is filed as functional.
The test system of data set [24] is NIH3T3. Kind of data set: Cytotoxicity against mouse NIH/3T3 cells assessed as reduction in cell viability at below 16 microg/ml incubated for 24 hrs by CCK-8 assay. It is filed as toxicity, cell-based. The conditions noted are these: nih3t3, 24 h, dose < 16 µg/ml.

As for `CCCN(CCC)CCc1cn(C[C@H]2CO[C@](Cn3ccnc3)(c3ccc(O)cc3F)O2)nn1` (mixture of isomers), the MIC80 in [1] was 0.016 µg/mL; in data set [3] it was above 64 µg/mL; in data set [5], 0.125 µg/mL; in data set [6] it was 0.25 µg/mL; in data set [9], 1 µg/mL; in [10], 0.016 µg/mL. Further, the MIC80 in data set [11] was above 64 µg/mL; in [12], 0.125 µg/mL; in data set [13], above 64 µg/mL; in [14] it was 0.125 µg/mL. Besides, the Ratio in [2] is 64; in data set [4], 64; in data set [7], 16; in data set [8] it was 16.
In the case of `OC(Cn1cncn1)(Cn1cncn1)c1ccc(F)cc1F` [FLUCONAZOLE], the MIC80 in data set [1] was 0.25 µg/mL (≈ 0.816 µM); in data set [3] it was above 64 µg/mL; in data set [5], 4 µg/mL (≈ 13.1 µM); in [6] it was 1 µg/mL (≈ 3.27 µM); in [9], 16 µg/mL (≈ 52.2 µM); in [10] it was 0.25 µg/mL (≈ 0.816 µM). Also, the MIC80 in data set [11] was above 64 µg/mL; in data set [12], 1 µg/mL (≈ 3.27 µM); in data set [13], above 64 µg/mL; in data set [14], 1 µg/mL (≈ 3.27 µM). In addition, the outcome in data set [15] and in data set [17] was inactive. Besides, the result in [16], in data set [18], in data set [19] and in data set [20] was Active.
As for `Oc1ccc([C@@]2(Cn3ccnc3)OC[C@H](Cn3cc(CCN4CCCCC4)nn3)O2)c(F)c1` (mixture of isomers), the MIC80 in data set [1] was 0.063 µg/mL; in data set [3] it was above 64 µg/mL; in data set [5], 0.25 µg/mL; in data set [6] it was 0.063 µg/mL; in [9] it was 0.125 µg/mL; in data set [10], 0.063 µg/mL. In addition, the MIC80 in data set [12] is 0.25 µg/mL; in data set [14], 0.063 µg/mL. Also, the figures for the Ratio in data set [21], in data set [22] and in data set [23] were 16, 32 and 4, respectively.
For `OCCC1CCN(CCc2cn(C[C@H]3CO[C@](Cn4ccnc4)(c4ccc(O)cc4F)O3)nn2)CC1` (mixture of isomers), the MIC80 in data set [1] was 0.016 µg/mL; in data set [3] it was above 64 µg/mL; in data set [5], 0.125 µg/mL; in data set [6], 0.125 µg/mL; in [9] it was 1 µg/mL; in data set [10], 0.016 µg/mL. Moreover, the MIC80 stood at 2 µg/mL in [11], 0.25 µg/mL in data set [12], 16 µg/mL in data set [13] and 0.125 µg/mL in data set [14]. The Ratio in data set [2] came to 64; in data set [4], 64; in [7], 16; in data set [8] it was 16. In addition, the Activity result in data set [24] is given as “Non-Toxic”.
As to `CCN(CC)CCc1cn(C[C@H]2CO[C@](Cn3ccnc3)(c3ccc(O)cc3F)O2)nn1` (mixture of isomers), the MIC80 stood at 0.016 µg/mL in [1]; 16 µg/mL in data set [3]; 0.25 µg/mL in data set [5]; 0.125 µg/mL in data set [6]; 0.125 µg/mL in data set [9]; 0.016 µg/mL in data set [10]. Moreover, the MIC80 in data set [11] was above 64 µg/mL; in data set [12] it was 0.125 µg/mL; in data set [13] it was above 64 µg/mL; in data set [14] it was 0.063 µg/mL. For the same compound, the Ratio is reported as 64 in [2], 64 in data set [4], 16 in data set [7] and 16 in [8].
In the case of `Oc1ccc([C@@]2(Cn3ccnc3)OC[C@H](Cn3cc(CCN4CCOCC4)nn3)O2)c(F)c1` (mixture of isomers), the MIC80 is 0.063 µg/mL in data set [1]; above 64 µg/mL in [3]; 0.5 µg/mL in data set [5]; 0.125 µg/mL in data set [6]; 0.125 µg/mL in [9]; 0.063 µg/mL in data set [10]. For the same compound, the MIC80 in [12] worked out at 0.25 µg/mL; in data set [14] it was 0.063 µg/mL. Further, the Ratio in data set [21] is reported as 16; in data set [22] it was 32; in data set [23], 4.
Consider `CCCCCOc1ccc(-c2cn(C[C@H]3CO[C@](Cn4ccnc4)(c4ccc(O)cc4F)O3)nn2)cc1` (mixture of isomers), for which the MIC80 in data set [1] is 0.016 µg/mL; in data set [3], 16 µg/mL; in data set [5], 0.5 µg/mL; in data set [6] it was 0.125 µg/mL; in [9], 1 µg/mL; in data set [10], 0.016 µg/mL. For the same compound, the MIC80 in [11] is above 64 µg/mL; in data set [12] it was 0.25 µg/mL; in data set [13], above 64 µg/mL; in data set [14] it was 0.063 µg/mL. In addition, the Ratio was determined as 64 in [2], 64 in [4], 16 in [7] and 16 in data set [8].
As for `OCC1CCN(CCc2cn(C[C@H]3CO[C@](Cn4ccnc4)(c4ccc(O)cc4F)O3)nn2)CC1` (mixture of isomers), the MIC80 in [1] came out at 0.016 µg/mL; in data set [3] it was 16 µg/mL; in [5], 0.5 µg/mL; in data set [6] it was 0.063 µg/mL; in data set [9], 0.063 µg/mL; in data set [10] it was 0.016 µg/mL. Further, the MIC80 in [11] was 2 µg/mL; in data set [12] it was 0.25 µg/mL; in [13], 8 µg/mL; in data set [14] it was 0.063 µg/mL. The Ratio in [2] came to 64; in [4], 64; in [7], 16; in data set [8] it was 16. Moreover, the outcome in data set [15], in [16], in [17], in data set [18], in data set [19] and in [20] was Active. In addition, the Activity result in data set [24] is recorded as “Non-Toxic”.
